Values quoted from earlier work in US8980929B2, “Substituted seven-membered heterocyclic compounds as dipeptidyl peptidase-iv inhibitors for the treatment of diabetes” (Merck Sharp & Dohme Corp., priority 2010, dated 2015).
Blank lines part the entries; values can stand above or below the compound they belong to.

Key:
cardiac allograft = conditions: rats; doubled from day 7
hematopoiesis = conditions: mouse, cyclophosphamide-induced neutropenia
DPP-4 = DPP-4 (Homo sapiens (Human), UniProt P27487)
Chain of DPP-4 (P27487 whole entry, species assumed): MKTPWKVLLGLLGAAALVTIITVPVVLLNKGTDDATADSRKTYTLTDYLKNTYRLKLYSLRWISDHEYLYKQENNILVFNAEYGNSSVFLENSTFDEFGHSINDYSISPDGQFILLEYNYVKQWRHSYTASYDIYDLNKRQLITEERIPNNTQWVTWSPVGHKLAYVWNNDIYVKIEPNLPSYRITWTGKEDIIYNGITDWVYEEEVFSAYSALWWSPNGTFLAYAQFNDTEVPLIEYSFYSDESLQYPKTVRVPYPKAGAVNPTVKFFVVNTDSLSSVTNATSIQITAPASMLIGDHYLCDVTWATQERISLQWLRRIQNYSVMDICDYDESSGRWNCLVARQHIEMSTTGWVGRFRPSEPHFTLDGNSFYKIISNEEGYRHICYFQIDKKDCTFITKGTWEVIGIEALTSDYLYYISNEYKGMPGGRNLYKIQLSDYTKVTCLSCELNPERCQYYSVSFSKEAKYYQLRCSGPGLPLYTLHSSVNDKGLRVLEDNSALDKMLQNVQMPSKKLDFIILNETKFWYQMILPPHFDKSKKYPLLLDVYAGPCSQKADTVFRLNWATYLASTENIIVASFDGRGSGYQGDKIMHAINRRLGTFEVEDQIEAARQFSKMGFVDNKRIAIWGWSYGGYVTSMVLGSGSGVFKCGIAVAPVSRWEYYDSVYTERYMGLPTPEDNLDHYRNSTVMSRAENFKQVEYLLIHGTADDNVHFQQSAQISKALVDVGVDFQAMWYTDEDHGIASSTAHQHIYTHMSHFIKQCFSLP

Compound: CC(C)N1CCC(c2ccccc2)(c2ccccc2)CC1 [Prodipine, Pro-Pro-diphenyl-phosphonate]
cardiac allograft survival (cardiac allograft): 14 day

Compound: CC(C)[C@H](N)C(=O)N1CCC[C@H]1B(O)O [Val-Boro-Pro]
hematopoiesis (hematopoiesis): stimulated hematopoiesis

degradation of GRF to GRF[3-44] in plasma (DPP-4): prevented
Compound: diprotin A
